The results in this text go back to ChEMBL document CHEMBL1158106, “Penifulvins B-E and a silphinene analogue: sesquiterpenoids from a fungicolous isolate of Penicillium griseofulvum” (J Nat Prod, 2006).

Common to all, as to format: functional, organism-based
Experiment [1] concerns Spodoptera frugiperda. Description: Insecticidal activity against Spodoptera frugiperda at 100 ug/disk.
Experiment [2] deals with Candida albicans. Briefly: Antifungal activity against Candida albicans ATCC 14053 at 100 ug/disk by agar disk diffusion assay. (In agar diffusion tests the substance spreads into inoculated agar from a disc or well.)
For experiment [3], the system named is Bacillus subtilis. Description: Antibacterial activity against Bacillus subtilis ATCC 6051 at 100 ug/disk by agar disk diffusion assay.
In experiment [4] the test system is Aspergillus flavus. Description: Antifungal activity against Aspergillus flavus NRRL 6541 at 100 ug/disk by agar disk diffusion assay.
The subject of experiment [5] is Staphylococcus aureus. Description: Antibacterial activity against Staphylococcus aureus ATCC 29213 at 100 ug/disk by agar disk diffusion assay.

Calls of active or inactive are those of the source. The rule behind the calls is not given here.

For the molecule `CC1(C)C[C@]2(C)CC(=O)O[C@H]3OC(=O)[C@@H]4CC[C@@H]1[C@]342`, in experiment [1], the result was Active.

For `C[C@@]1(CO)C[C@]2(C)CC=C[C@]23[C@H](C(=O)O)CC[C@@H]13`, the result in experiment [2], in experiment [3], in experiment [4], in experiment [1] and in experiment [5] was inactive.

Take `C[C@@]1(CO)C[C@]2(C)CC(=O)O[C@H]3OC(=O)[C@@H]4CC[C@@H]1[C@]342`: the outcome in experiment [2], in experiment [3], in experiment [4], in experiment [1] and in experiment [5] was inactive.
